The values below come from US12391679B2, “Benzamide-substituted bicyclic imidazo- and pyrazolo-fused -pyridine, -pyrimide, and -pyridazine compounds for treatment of inflammatory diseases” (ONCO3R Therapeutics BV, priority 2019, dated 2025).

For test [1], the target named is T1, SIK2 (Homo sapiens, UniProt Q9H0K1).
T1 construct: purchased ThermoFisher Scientific PV4792
Kind of test: ADP-Glo kinase assay, SIK2. The format is biochemical. An outline of the steps:
(§1)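 Steps: add enzyme–substrate mixture; start with diluted ATP; incubate RT 120 min; add ADP-Glo Reagent to terminate and remove unconsumed ATP, 40 min; add detection reagent, 30 min; read luminescence. DMSO at 1% and staurosporine at 10 μM (final) define assay windows.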

Test [2] concerns the target T2, SIK1 (Homo sapiens, UniProt P57059).
T2 construct: purchased Carna Biosciences 02-131
Kind of test: ADP-Glo kinase assay, SIK1. Format: biochemical. In outline:
as §1
(ADP-Glo first removes unused ATP, then detects ADP through luciferase.)

The target of test [3] is T3, SIK3 (Homo sapiens, UniProt Q9Y2K2).
T3 construct: purchased SignalChem S12-11G-100
T3 sequence (Q9Y2K2 59-365 limits assumed): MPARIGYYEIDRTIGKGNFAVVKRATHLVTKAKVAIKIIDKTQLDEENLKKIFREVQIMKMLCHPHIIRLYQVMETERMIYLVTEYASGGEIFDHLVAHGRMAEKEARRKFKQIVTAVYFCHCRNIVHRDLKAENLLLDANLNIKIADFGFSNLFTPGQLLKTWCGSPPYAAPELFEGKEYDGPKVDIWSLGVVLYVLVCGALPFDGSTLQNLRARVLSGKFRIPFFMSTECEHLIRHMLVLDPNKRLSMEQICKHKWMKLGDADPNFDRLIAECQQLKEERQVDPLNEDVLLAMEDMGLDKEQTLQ
Kind of test: ADP-Glo kinase assay, SIK3. Format: biochemical. An outline of the steps:
as §1

The subject of test [4] is LPS-induced TNFα in monocyte-derived macrophages. Kind of test: MdM assay: LPS-triggered TNFα (ELISA). The format is cell-based, human. Particulars: Macrophage; human MdM; LPS 200 ng/mL; supernatant after 20 h; inhibition of TNFα; read-out: TNFα EC50. As to the method:
This assay evaluates illustrative compounds of the invention for their inhibition of LPS-induced TNFα and LPS triggered IL-10 secretion in monocyte-derived macrophages. PBMCs are isolated from human blood samples (buffycoats). The buffy coat is aseptically transferred into a 50 mL Falcon tube, and diluted 1/2 in PBS. Falcon tubes are filled with 20 mL LymphoprepTM, on top of which 25 mL of the buffy coat is carefully added, tubes are centrifuged for 35 min at 400 g in temperature controlled centrifuge, without brake, at 25° C. PBMCs are aspirated from the white interface layer between sample and LymphoprepTM. PBMCs are washed five times in PBS. […] PBMCs are centrifuged at 300×g for 10 min and resuspended at a density of 1.0*10^7 cells/80 μL Miltenyi buffer (PBS, pH 7.4, 1% FBS, 2 mM EDTA). Starting from this point of the protocol all steps are performed on ice. 20 μL of CD14+ micro-beads are added per 1.0*10^7 cells, the tube is mixed and incubated for 15 min in the fridge at 4° C. Cell suspension volume is adjusted to total volume of 100 mL using Miltenyi buffer, mixed gently and subsequently centrifuged for 10 min at 300×g. Supernatant is discarded and cell pellet is resuspended in 12 mL of Miltenyi buffer. Four LS columns are placed in the MACS Separator (magnet) from Miltenyi Biotec, and are prewet by rinsing with 3 mL of MACS buffer per column. Three mL of cell suspension is added onto the column (max 1*10^8 of labelled cells/column), and columns are subsequently washed 3 times with 3 mL of Miltenyi buffer. The columns are removed from the magnets, and 5 mL of Miltenyi buffer are added to the column to flush out the CD14+ fraction by pushing the plunger into the column. The flushed fractions are collected in a fresh 50 mL Falcon and volume is adjusted to 30 mL using Miltenyi buffer, cells are centrifuged for 10 min at 300×g. The obtained cell pellet is resuspended in 10 mL RPMI w/o FBS, and cell density is determined using a hematologic analyser (Sysmex XS-500i). […] On day 10, MdMs are triggered and compound is added. A compound dilution plate is made in 100% DMSO by 3-fold dilution of 10 mM stock solution. An intermediate dilution plate (10× final concentration) is made by diluting the compound dilution plate […] in RPMI medium. Medium is carefully removed from cell plates using multichannel pipette, and replaced by 80 μL fresh medium. 10 μL of the 10× final concentration compound is added to the cells and incubated for 1 hour at 37° C. before addition of trigger. No trigger conditions/trigger conditions are spiked with equal final DMSO concentrations of 0.2% DMSO. 10 μL of 10×LPS (final conc. 200 ng/mL) solution are added to all wells except for the 'no trigger wells' where 10 μL medium is added. Supernatant is collected after 2 h (IL-10 determination) and after 20 h (TNFα determination) of LPS triggering. […] The plate is then washed once with PBST (PBS+0.05% Tween20) and once with PBS followed by the addition of 100 μL of blocking buffer (1% Bovine Serum Albumin (BSA) -5% Sucrose) and plates are sealed and incubated for at least 4 h at RT. After washing the plate once with PBST and once with PBS, 40 μL of standard or sample are added (TNFα standard curve is prepared using a 1/2 serial dilution starting from 16000 pg/mL; dilutions are made in dilution buffer (PBS+1% BSA)). Plates are washed twice with PBST, and once with PBS, after which 35 μL of the detection antibody is added (final concentration 0.25 μg/mL diluted in dilution buffer) and plates are incubated for at least 2 h at RT. Plates are washed twice with PBST, and once with PBS, where after 35 μL of Strep-HRP conjugate (0.5 μg/mL final concentration diluted in dilution buffer) is added. […] Plates are washed twice with PBST, and once with PBS. Thereafter, 50 μL of luminol substrate is added to each well (prepared according to manufacturer's instructions), and incubated for 5 min at RT protected from light.
In general terms: An ELISA detects its analyte on a solid surface through an enzyme-linked reagent.

Test [5] has as its system LPS-induced TNFα in monocytes. Kind of test: Monocytes assay: LPS-triggered TNFα (ELISA). As to conditions: Homo sapiens, Monocyte, LPS-triggered TNFα inhibition. Format: cell-based, human. How it is done: This assay evaluates illustrative compounds of the invention for their inhibition of LPS-induced TNFα and LPS triggered IL-10 secretion in monocytes.
PBMCs are isolated from human blood samples (buffycoats). The buffy coat is aseptically transferred into a 50 mL Falcon tube, and diluted 1/2 in PBS. Falcon tubes are filled with 20 mL Lymphoprep™, on top of which 25 mL of the buffy coat is carefully added, tubes are centrifuged for 35 min at 400 g in temperature controlled centrifuge, without brake, at 25° C. PBMCs are aspirated from the white interface layer between sample and Lymphoprep™. PBMCs are washed five times in PBS.
PBMCs are centrifuged at 300×g for 10 min and resuspended at a density of 1.0*10^7 cells/80 μL Miltenyi buffer (PBS, pH 7.4, 1% FBS, 2 mM EDTA).
Starting from this point of the protocol all steps are performed on ice. 20 μL of CD14+ micro-beads are added per 1.0*10^7 cells, the tube is mixed and incubated for 15 min in the fridge at 4° C. Cell suspension volume is adjusted to total volume of 100 mL using Miltenyi buffer, mixed gently and subsequently centrifuged for 10 min at 300×g. Supernatant is discarded and cell pellet is resuspended in 12 mL of Miltenyi buffer.
Four LS columns are placed in the MACS Separator (magnet) from Miltenyi Biotec, and are prewet by rinsing with 3 mL of MACS buffer per column. Three mL of cell suspension is added onto the column (max 1*10^8 of labelled cells/column), and columns are subsequently washed 3 times with 3 mL of Miltenyi buffer.
The columns are removed from the magnets, and 5 mL of Miltenyi buffer are added to the column to flush out the CD14+ fraction by pushing the plunger into the column. The flushed fractions are collected in a fresh 50 mL Falcon and volume is adjusted to 30 mL using Miltenyi buffer, cells are centrifuged for 10 min at 300×g. The obtained cell pellet is resuspended in 10 mL RPMI w/o FBS, and cell density is determined using a hematologic analyser (Sysmex XS-500i).
A compound dilution plate is made in 100% DMSO by 3-fold dilution of 10 mM stock solution. An intermediate dilution plate (10× final concentration) is made by diluting the compound dilution plate 50-fold in RPMI medium.
10 μL of the 10× final concentration compound is added to the cells and incubated for 1 h at 37° C. before addition of trigger. No trigger conditions/trigger conditions are spiked with equal final DMSO concentrations of 0.2% DMSO. 10 μL of 10×LPS (final conc. 200 ng/mL) solution are added to all wells except for the ‘no trigger wells’ where 10 μL medium is added. Supernatant is collected after 4 h of LPS triggering.
The plate is then washed once with PBST (PBS+0.05% Tween20) and once with PBS followed by the addition of 100 μL of blocking buffer (1% Bovine Serum Albumin (BSA)-5% Sucrose) and plates are sealed and incubated for at least 4 h at RT. After washing the plate once with PBST and once with PBS, […]. Plates are washed twice with PBST, and once with PBS, after which 35 μL of the detection antibody is added (final concentration 0.25 μg/mL diluted in dilution buffer) and plates are incubated for at least 2 h at RT. Plates are washed twice with PBST, and once with PBS, whereafter 35 μL of Strep-HRP conjugate (0.5 μg/mL final concentration diluted in dilution buffer) is added. Plates are incubated in the dark, at RT for at least 45 min but no longer than 1 h. Plates are washed twice with PBST, and once with PBS. Thereafter, 50 μL of luminol substrate is added to each well (prepared according to manufacturer's instructions), and incubated for 5 min at RT protected from light.
To measure the inhibition of LPS induced TNFα, percentage inhibition (PIN) values are calculated for all concentrations tested, compared to controls.

T1 sequence (Q9H0K1 whole entry): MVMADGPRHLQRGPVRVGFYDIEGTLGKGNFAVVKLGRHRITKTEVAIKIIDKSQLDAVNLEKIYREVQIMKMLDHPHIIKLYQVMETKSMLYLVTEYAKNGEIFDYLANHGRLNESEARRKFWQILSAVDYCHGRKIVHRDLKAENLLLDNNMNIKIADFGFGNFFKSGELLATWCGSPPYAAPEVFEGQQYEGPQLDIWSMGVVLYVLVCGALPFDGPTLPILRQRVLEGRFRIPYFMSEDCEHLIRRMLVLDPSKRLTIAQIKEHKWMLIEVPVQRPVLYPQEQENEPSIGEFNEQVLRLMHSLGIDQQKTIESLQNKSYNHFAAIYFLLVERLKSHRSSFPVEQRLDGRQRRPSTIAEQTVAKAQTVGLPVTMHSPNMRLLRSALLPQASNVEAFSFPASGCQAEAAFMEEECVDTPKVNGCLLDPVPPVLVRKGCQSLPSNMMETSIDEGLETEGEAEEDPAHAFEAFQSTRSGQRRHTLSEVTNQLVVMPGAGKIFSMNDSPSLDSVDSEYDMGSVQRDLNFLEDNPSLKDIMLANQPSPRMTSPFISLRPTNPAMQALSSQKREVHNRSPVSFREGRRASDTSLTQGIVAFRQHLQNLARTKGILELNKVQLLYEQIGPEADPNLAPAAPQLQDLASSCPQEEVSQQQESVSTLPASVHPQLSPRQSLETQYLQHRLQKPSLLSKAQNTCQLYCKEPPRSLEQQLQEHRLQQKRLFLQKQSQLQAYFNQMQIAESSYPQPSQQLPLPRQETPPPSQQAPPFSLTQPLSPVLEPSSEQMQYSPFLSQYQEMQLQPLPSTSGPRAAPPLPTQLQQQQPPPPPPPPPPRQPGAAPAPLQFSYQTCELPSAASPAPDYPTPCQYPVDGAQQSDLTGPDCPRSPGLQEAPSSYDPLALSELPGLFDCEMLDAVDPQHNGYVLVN
T2 sequence (P57059 whole entry): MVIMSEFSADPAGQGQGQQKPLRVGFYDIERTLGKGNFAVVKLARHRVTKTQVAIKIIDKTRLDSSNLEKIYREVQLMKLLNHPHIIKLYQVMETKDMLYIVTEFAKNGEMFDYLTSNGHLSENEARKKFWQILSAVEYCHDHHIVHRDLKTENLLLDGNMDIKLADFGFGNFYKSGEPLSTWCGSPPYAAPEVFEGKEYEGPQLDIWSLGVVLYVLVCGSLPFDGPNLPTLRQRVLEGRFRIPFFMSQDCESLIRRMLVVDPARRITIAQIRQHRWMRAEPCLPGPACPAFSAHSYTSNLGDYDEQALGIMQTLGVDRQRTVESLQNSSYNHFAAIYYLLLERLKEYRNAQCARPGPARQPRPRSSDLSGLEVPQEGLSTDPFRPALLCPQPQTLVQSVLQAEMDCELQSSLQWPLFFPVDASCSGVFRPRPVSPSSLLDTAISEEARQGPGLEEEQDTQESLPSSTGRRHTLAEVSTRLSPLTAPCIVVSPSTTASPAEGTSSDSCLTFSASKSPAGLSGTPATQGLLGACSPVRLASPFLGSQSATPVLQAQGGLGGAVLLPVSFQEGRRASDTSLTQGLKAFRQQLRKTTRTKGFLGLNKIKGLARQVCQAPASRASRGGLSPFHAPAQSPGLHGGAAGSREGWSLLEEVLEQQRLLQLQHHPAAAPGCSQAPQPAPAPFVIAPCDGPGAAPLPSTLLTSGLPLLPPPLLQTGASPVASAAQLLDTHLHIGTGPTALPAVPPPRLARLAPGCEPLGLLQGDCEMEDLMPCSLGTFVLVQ

Usually IC50 stands for the concentration needed to halve the response being measured. A high value points to weaker potency in that assay. Usually EC50 stands for the concentration giving half of the maximal effect. With `COc1cc(-c2cnc3cc(C(C)(C)OC)ccn23)cc(OC(F)F)c1C(=O)NC1CC1` [Cpd 120, N-cyclopropyl-2-(difluoromethoxy)-6-methoxy-4-[7-(1-methoxy-1-methyl-ethyl)imidazo[1,2-a]pyridin-3-yl]benzamide], the IC50 in test [1] is more than 500 nM; in test [2], more than 500 nM; in test [3], 0.01 to 10 nM. Moreover, the concentration for a half-maximal effect (EC50) in test [4] was in the range of 100 to 1000 nM.

For `COc1cc(-c2cnc3cc(C4CN(C(C)=O)C4)c(F)cn23)cc(OC(F)F)c1C(=O)NC1CC1` [Cpd 169, 4-[7-(1-acetylazetidin-3-yl)-6-fluoro-imidazo[1,2-a]pyridin-3-yl]-N-cyclopropyl-2-(difluoromethoxy)-6-methoxy-benzamide], the half-maximal inhibitory concentration (IC50) in test [1] is 100 to 500 nM; in test [2] it was more than 500 nM; in test [3], 10 to 100 nM. The EC50 in test [5] fell in the range of 1000 to 5000 nM.

In the case of `COc1cc(-c2cnc3cc(C4CCCN(C)C4)ccn23)cc(OC(F)F)c1C(=O)NC1CC1` (stereo not drawn) [Cpd 67, N-cyclopropyl-2-(difluoromethoxy)-6-methoxy-4-[7-(1-methyl-3-piperidyl)imidazo[1,2-a]pyridin-3-yl]benzamide], the results for the IC50 in test [1], in test [2] and in test [3] were 10 to 100 nM, more than 500 nM and 0.01 to 10 nM, respectively. Moreover, the EC50 in test [4] lay within 100 to 1000 nM.

On to `COC(=O)NC1(c2ccc3c(-c4cc(OC)c(C(=O)N[C@@H]5C[C@@H]5F)c(OC(F)F)c4)cnn3c2)CCC1` [Cpd 272, methyl N-[1-[3-[3-(difluoromethoxy)-4-[[(1R,2S)-2-fluorocyclopropyl]carbamoyl]-5-methoxy-phenyl]pyrazolo[1,5-a]pyridin-6-yl]cyclobutyl]carbamate], for which the concentration for half-maximal inhibition (IC50) in test [1] is more than 500 nM; in test [2] it was more than 500 nM; in test [3] it was 10 to 100 nM. Moreover, the EC50 in test [5] fell in the range of 100 to 1000 nM.

For the compound `COc1cc(-c2cnc3cc(C4CCN(C)CC4)ccn23)cc(OC(F)F)c1C(=O)NC1CC1` [Cpd 68, N-cyclopropyl-2-(difluoromethoxy)-6-methoxy-4-[7-(1-methyl-4-piperidyl)imidazo[1,2-a]pyridin-3-yl]benzamide], the half-inhibitory concentration (IC50) in test [1] was 10 to 100 nM; in test [2] it was more than 500 nM; in test [3] it was 0.01 to 10 nM. The concentration for a half-maximal effect (EC50) in test [4] lay within 1000 to 5000 nM.

With `COc1cc(-c2cnc3cc(C(C)(O)C(C)C)ccn23)cc(OC(F)F)c1C(=O)NC1CC1` (stereo not drawn) [Cpd 135, N-cyclopropyl-2-(difluoromethoxy)-4-[7-(1-hydroxy-1,2-dimethyl-propyl)imidazo[1,2-a]pyridin-3-yl]-6-methoxy-benzamide], the IC50 in test [1] was more than 500 nM; in test [2], more than 500 nM; in test [3] it was 10 to 100 nM. For the same compound, the EC50 in test [4] was in the range of 100 to 1000 nM.

In the case of `COc1cc(-c2cnc3cc(C(C)N4CCOCC4)ccn23)cc(OC(F)F)c1C(=O)NC1CC1` (stereo not drawn) [Cpd 139, N-cyclopropyl-2-(difluoromethoxy)-6-methoxy-4-[7-(1-morpholinoethyl)imidazo[1,2-a]pyridin-3-yl]benzamide], the IC50 was more than 500 nM in test [1], more than 500 nM in test [2] and 10 to 100 nM in test [3]. Besides, the EC50 in test [5] was 1000 to 5000 nM.

`COc1cc(-c2cnn3cc(C(C)(C)COC4COC4)ccc23)cc(OC(F)F)c1C(=O)N[C@@H]1C[C@@H]1F` [Cpd 265, 2-(difluoromethoxy)-4-[6-[1,1-dimethyl-2-(oxetan-3-yloxy)ethyl]pyrazolo[1,5-a]pyridin-3-yl]-N-[(1R,2S)-2-fluorocyclopropyl]-6-methoxy-benzamide]: the 50% inhibitory concentration (IC50) is more than 500 nM in test [1], more than 500 nM in test [2] and 10 to 100 nM in test [3]. The compound further came in with a concentration for a half-maximal effect (EC50) in test [5] of 100 to 1000 nM.

Consider `COc1cc(-c2cnc3cc(C(C)(C)C(C)O)ccn23)cc(OC)c1C(=O)NCC(F)(F)F` (stereo not drawn) [Cpd 62, 4-[7-(2-hydroxy-1,1-dimethyl-propyl)imidazo[1,2-a]pyridin-3-yl]-2,6-dimethoxy-N-(2,2,2-trifluoroethyl)benzamide], for which the half-maximal inhibitory concentration (IC50) in test [1] is more than 500 nM; in test [2], more than 500 nM; in test [3] it was 10 to 100 nM. The compound also had a 50% effective concentration (EC50) in test [5] of 1000 to 5000 nM.
